EP4567034A1 (Korea Institute of Science and Technology, priority 2022, dated 2024)
pEC50: −log10 of the molar value.

Assays:
[1] = target: T1, S1P1 receptor (Homo sapiens, UniProt P21453); test: S1P1 β-arrestin recruitment assay in S1P1 overexpressing cell line (DiscoverX), luminescence; assay type: cell-based
[2] = target: T1, S1P1 receptor; test: S1P1 receptor internalization (endosome formation) assay in S1P1 overexpressing cell line (DiscoverX), luminescence; assay type: cell-based
[3] = S1P1 overexpressing cell line, β-arrestin recruitment, luminescence, read-out: β-arrestin EC50
[4] = S1P1 overexpressing cell line, endosome formation by internalization, luminescence, read-out: Internalization EC50

T1 sequence (P21453 whole entry): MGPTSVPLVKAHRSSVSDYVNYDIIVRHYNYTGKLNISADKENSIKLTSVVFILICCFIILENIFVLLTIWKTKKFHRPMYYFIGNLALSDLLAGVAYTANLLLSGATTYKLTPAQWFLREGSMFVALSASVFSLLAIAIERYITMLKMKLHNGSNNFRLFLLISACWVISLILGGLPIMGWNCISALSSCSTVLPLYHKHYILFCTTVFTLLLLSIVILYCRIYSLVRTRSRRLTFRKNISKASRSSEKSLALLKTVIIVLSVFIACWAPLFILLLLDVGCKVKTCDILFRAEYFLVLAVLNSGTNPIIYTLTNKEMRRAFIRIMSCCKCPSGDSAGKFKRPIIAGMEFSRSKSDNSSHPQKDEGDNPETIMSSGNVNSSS

Row | SMILES | pEC50 [1] | pEC50 [2] | pEC50 [1, 3] | pEC50 [2, 4]
1 | CCOC(=O)C1CN(Cc2ccc(-c3cnc(-c4ccc(C(C)(C)C)cc4)[se]3)cc2)C1 [Compound 3, Ethyl 1-(4-(2-(4-tert-butylphenyl)-1,3-selenazole-5-yl)benzyl)azetidine-3-carboxylate] | 7.63 | 6.93 |  | 
2 | CC(C)Oc1ccc(-c2ncc(-c3ccc(CN4CC(C(=O)O)C4)cc3)[se]2)cc1C(F)(F)F [Compound 10, 1-(4-(2-(4-isopropoxy-3-(trifluoromethyl)phenyl)-1,3-selenazole-5-yl)benzyl)azetidine-3-carboxylic acid] | 9.35 | 9.44 |  | 
3 | O=C(O)C1CN(Cc2ccc(-c3cnc(-c4ccccn4)[se]3)cc2)C1 [Compound 27, Sodium 1-(4-(2-(pyridine-2-yl)-1,3-selenazole-5-yl)benzyl)azetidine-3-carboxylate] |  |  | < 6.00 | < 6.00
4 | CCOC(=O)C1CN(Cc2ccc(-c3cnc(-c4ccc(OC(C)C)cc4)[se]3)cc2)C1 [Compound 20, Ethyl 1-(4-(2-(4-isopropoxyphenyl)-1,3-selenazole-5-yl)benzyl)azetidine-3-carboxylate] | 8.52 | 6.93 |  | 
5 | COC(=O)C1CCN(Cc2ccc(-c3cnc(-c4ccc(C(C)(C)C)cc4)[se]3)cc2)C1 (stereo not drawn) [Compound 30, Methyl 1-(4-(2-(4-tert-butylphenyl)-1,3-selenazole-5-yl)benzyl)pyrrolidine-3-carboxylate] | 8.07 | 6.69 |  | 
6 | CC(C)Oc1ccc(-c2ncc(-c3ccc(CN4CC(C(=O)OC(C)(C)C)C4)cc3)[se]2)cc1C#N [Compound 8, Tert-butyl 1-(4-(2-(3-cyano-4-isopropoxyphenyl)-1,3-selenazole-5-yl)benzyl)azetidine-3-carboxylate] | 7.52 | 7.48 |  | 
7 | COc1ccc(-c2ncc(-c3ccc(CN4CC(C(=O)O)C4)cc3)[se]2)cc1 [Compound 17, 1-(4-(2-(4-methoxyphenyl)-1,3-selenazole-5-yl)benzyl)azetidine-3-carboxylic acid] | 7.59 | 7.09 |  | 
8 | COC(=O)C1CCN(Cc2ccc(-c3cnc(-c4ccc(C(C)(C)C)cc4)[se]3)cc2)CC1 [Compound 32, Methyl 1-(4-(2-(4-tert-butylphenyl)-1,3-selenazole-5-yl)benzyl)piperidine-4-carboxylate] |  |  | 6.24 | 6.29
9 | CCOc1ccc(-c2ncc(-c3ccc(CN4CC(C(=O)OC)C4)cc3)[se]2)cc1Cl [Compound 14, Methyl 1-(4-(2-(3-chloro-4-ethoxyphenyl)-1,3-selenazole-5-yl)benzyl)azetidine-3-carboxylate] | 8.95 | 8.31 |  | 
10 | COC(=O)CCNCc1ccc(-c2cnc(-c3ccc(OC(C)C)c(Cl)c3)[se]2)cc1 [Compound 37, Methyl 3-(4-(2-(3-chloro-4-isopropoxyphenyl)-1,3-selenazole-5-yl)benzylamino)propanoate] | 8.10 | 7.87 |  | 
11 | CCOC(=O)C1CN(Cc2ccc(-c3cnc(-c4ccccc4OC(C)C)[se]3)cc2)C1 [Compound 25, Ethyl 1-(4-(2-(2-isopropoxyphenyl)-1,3-selenazole-5-yl)benzyl)azetidine-3-carboxylate] |  |  | 6.60 | 6.46
12 | COC(=O)C1CN(Cc2ccc(-c3cnc(-c4cccc(OC(C)C)c4)[se]3)cc2)C1 [Compound 21, Methyl 1-(4-(2-(3-isopropoxyphenyl)-1,3-selenazole-5-yl)benzyl)azetidine-3-carboxylate] |  |  | 6.30 | 6.42
13 | CC(C)Oc1ccccc1-c1ncc(-c2ccc(CN3CC(C(=O)O)C3)cc2)[se]1 [Compound 24, 1-(4-(2-(2-isopropoxyphenyl)-1,3-selenazole-5-yl)benzyl)azetidine-3-carboxylic acid] |  |  | < 6.00 | < 6.00
14 | CC(C)Oc1ccc(-c2ncc(-c3ccc(CN4CC(C(=O)O)C4)cc3)[se]2)cc1 [Compound 19, 1-(4-(2-(4-isopropoxyphenyl)-1,3-selenazole-5-yl)benzyl)azetidine-3-carboxylic acid] | 8.94 | 9.01 |  | 
15 | COC(=O)C1CN(Cc2ccc(-c3cnc(-c4ccc(OC(C)C)c(C(F)(F)F)c4)[se]3)cc2)C1 [Compound 9, Methyl 1-(4-(2-(4-isopropoxy-3-(trifluoromethyl)phenyl)-1,3-selenazole-5-yl)benzyl)azetidine-3-carboxylate] | 8.74 | 8.80 |  | 
16 | COC(=O)C1CN(Cc2ccc(-c3cnc(-c4ccccc4OC(C)C)[se]3)cc2)C1 [Compound 23, Methyl 1-(4-(2-(2-isopropoxyphenyl)-1,3-selenazole-5-yl)benzyl)azetidine-3-carboxylate] |  |  | < 6.00 | < 6.00
17 | CCOC(=O)CNCc1ccc(-c2cnc(-c3ccc(OC(C)C)c(Cl)c3)[se]2)cc1 [Compound 35, Ethyl 2-(4-(2-(3-chloro-4-isopropoxyphenyl)-1,3-selenazole-5-yl)benzylamino)acetate] | 7.68 | 7.94 |  | 

Row | SMILES | pEC50 [1] | pEC50 [2] | pEC50 [1, 3] | pEC50 [2, 4]
18 | CCOC(=O)C1CN(Cc2ccc(-c3cnc(-c4ccc(OC(C)C)c(C#N)c4)[se]3)cc2)C1 [Compound 7, Ethyl 1-(4-(2-(3-cyano-4-isopropoxyphenyl)-1,3-selenazole-5-yl)benzyl)azetidine-3-carboxylate] | 8.93 | 8.36 |  | 
19 | COC(=O)C1CN(Cc2ccc(-c3cnc(-c4ccc(C(C)(C)C)cc4)[se]3)cc2)C1 [Compound 1, Methyl 1-(4-(2-(4-tert-butylphenyl)-1,3-selenazole-5-yl)benzyl)azetidine-3-carboxylate] | 7.95 | 6.76 |  | 
20 | COC(=O)C1CN(Cc2ccc(-c3ncc(-c4ccc(OC(C)C)c(Cl)c4)[se]3)cc2)C1 [Compound 41, Methyl 1-(4-(5-(3-chloro-4-isopropoxyphenyl)-1,3-selenazole-2-yl)benzyl)azetidine-3-carboxylate] | 9.05 | 8.02 |  | 
21 | COC(=O)C1CN(Cc2ccc(-c3cnc(-c4ccc(OC(C)C)c(Cl)c4)[se]3)cc2)C1 [Compound 12, Methyl 1-(4-(2-(3-chloro-4-isopropoxyphenyl)-1,3-selenazole-5-yl)benzyl)azetidine-3-carboxylate] | 8.85 | 8.83 |  | 
22 | O=C(O)C1CN(Cc2ccc(-c3cnc(-c4cccnc4)[se]3)cc2)C1 [Compound 29, Sodium 1-(4-(2-(pyridine-3-yl)-1,3-selenazole-5-yl)benzyl)azetidine-3-carboxylate] |  |  | 6.20 | 6.42
23 | COC(=O)C1CN(Cc2ccc(-c3cnc(-c4ccccn4)[se]3)cc2)C1 [Compound 26, Methyl 1-(4-(2-(pyridine-2-yl)-1,3-selenazole-5-yl)benzyl)azetidine-3-carboxylate] |  |  | < 6.00 | < 6.00
24 | CC(C)Oc1ccc(-c2ncc(-c3ccc(CN4CC(C(=O)O)C4)cc3)[se]2)cc1C#N [Compound 6] | 9.43 | 10.19 |  | 
25 | COC(=O)C1CN(Cc2ccc(-c3ncc(-c4ccc(C(C)(C)C)cc4)[se]3)cc2)C1 [Compound 39, Methyl 1-(4-(5-(4-tert-butylphenyl)-1,3-selenazole-2-yl)benzyl)azetidine-3-carboxylate] | 7.41 | 6.80 |  | 
26 | COC(=O)C1CN(Cc2ccc(-c3cnc(-c4ccc(OC(C)C)c(C#N)c4)[se]3)cc2)C1 [Compound 5] | 8.44 | 9.06 |  | 
27 | COC(=O)C1CN(Cc2ccc(-c3cnc(-c4ccc(OC)cc4)[se]3)cc2)C1 [Compound 16, Methyl 1-(4-(2-(4-methoxyphenyl)-1,3-selenazole-5-yl)benzyl)azetidine-3-carboxylate] | 7.31 | 6.86 |  | 
28 | CC(C)(C)OC(=O)C1CN(Cc2ccc(-c3cnc(-c4ccc(C(C)(C)C)cc4)[se]3)cc2)C1 [Compound 4, Tert-butyl 1-(4-(2-(4-tert-butylphenyl)-1,3-selenazole-5-yl)benzyl)azetidine-3-carboxylate] | 7.15 | 6.85 |  | 
29 | CCOC(=O)C1CN(Cc2ccc(-c3cnc(-c4ccc(OC(C)C)c(C(F)(F)F)c4)[se]3)cc2)C1 [Compound 11, Ethyl 1-(4-(2-(4-isopropoxy-3-(trifluoromethyl)phenyl)-1,3-selenazole-5-yl)benzyl)azetidine-3-carboxylate] | 8.83 | 7.90 |  | 
30 | COC(=O)C1CCN(Cc2ccc(-c3cnc(-c4ccc(OC(C)C)c(Cl)c4)[se]3)cc2)C1 (stereo not drawn) [Compound 33, Methyl 1-(4-(2-(3-chloro-4-isopropoxyphenyl)-1,3-selenazole-5-yl)benzyl)pyrrolidine-3-carboxylate] | 8.75 | 7.92 |  | 
31 | COC(=O)C1CN(Cc2ccc(-c3cnc(-c4cccnc4)[se]3)cc2)C1 [Compound 28, Methyl 1-(4-(2-(pyridine-3-yl)-1,3-selenazole-5-yl)benzyl)azetidine-3-carboxylate] |  |  | < 6.00 | < 6.00
32 | CC(C)Oc1cccc(-c2ncc(-c3ccc(CN4CC(C(=O)O)C4)cc3)[se]2)c1 [Compound 22, 1-(4-(2-(3-isopropoxyphenyl)-1,3-selenazole-5-yl)benzyl)azetidine-3-carboxylic acid] | 8.07 | 7.01 |  | 
33 | COC(=O)C1CN(Cc2ccc(-c3cnc(-c4ccc(OC(C)C)cc4)[se]3)cc2)C1 [Compound 18, Methyl 1-(4-(2-(4-isopropoxyphenyl)-1,3-selenazole-5-yl)benzyl)azetidine-3-carboxylate] | 8.49 | 8.03 |  | 
